Here are results for 1 compound from paper PMC4683533, “Discovery of novel INK4C small-molecule inhibitors to promote human and murine hematopoietic stem cell ex vivo expansion” (Scientific Reports, 2015).

Structures are written as SMILES. “Also recorded” adds a separate entry of the source.

One series relates to HSCs (bone marrow MNCs). Kind of series: cobblestone area forming cells (CAFC) assay with limiting dilution assay (LDA). The series is classed as cell-based, mouse. As to conditions: day 35. The protocol: We also investigated whether the increased number of phenotypic SLAM^+LT-HSCs in short-term culture assays was correlated with an increase in functional LT-HSCs. Cobblestone area forming cells (CAFC) assay combined with limiting-dilution assays (LDA) were performed to measure the frequency of HSCs[19][22][30]. Compared with the control group (HSC frequency is 1 in 112,559 of the original plated cells), the frequency of HSC at day 35 (indicating the activity of hematopoietic reconstitution capacity) was 2.7-fold and 3.0-fold higher in the cultures treated with XIE18–6 (HSC frequency is 1 in 42,490 of the original plated cells) and compound 40 (HSC frequency is 1 in 37,524 of the original plated cells) (p < 0.001, Fig. 3C), respectively.
Freshly isolated bone marrow MNCs from mice, 6–8 weeks old, were plated in a 24-well plate with 1 mL Dexter’s medium at a density of 2 × 10^6 cells per mL in the absence or presence of different doses of the tested compounds. The culture was maintained at 33 °C with 5% CO2. The number of cobblestone areas (CAs) was counted weekly. The medium was also replaced with half fresh medium on a weekly basis. For the limiting dilution analysis (LDA) of the test cells, different limiting doses were plated on the irradiated stromal cells in 96-well plates containing 200 μL of M5300 medium (StemCell Technologies) supplemented with 10^−6 M hydrocortisone. Each group was done with 20 replicates well. Small-molecule compounds were added to the co-culture system at different doses. Half of the medium in each well was replaced with fresh medium containing the test compounds weekly. The existence of CA in each well was evaluated under an inverted microscope at weekly intervals for 5 weeks. Based on the Poisson distribution of the negative wells, the frequency of long-term initiating cells was calculated with L-Calc software (StemCell Technologies).

For series [1], the system named is c-Kit-enriched mouse BM cells (HSPC, LT-HSCs). Kind of series: ex vivo bulk culture of c-Kit-enriched BM cells with flow cytometry phenotyping. The series is classed as cell-based. As to conditions: 5 days culture with cytokines. The protocol:
To investigate the effect of p18SMI compounds on murine HSCs, c-Kit-enriched mouse BM cells were cultured for 5 days with media containing cytokines and the p18SMI compounds. […] Lin^−Sca-1^+(LS) cells were further analyzed using a combination of CD150 and CD48 (SLAM code) biomarkers for HSC identification. CD150^+ CD48^−KSLs (hereafter referred to as SLAM^+) cells are enriched for long term (LT)-HSCs.
HSCs expansion medium consists of BIT9500 (Stem Cell Technologies) supplemented with 50 ng/mL recombinant mouse (rm) SCF, 20 ng/mL FMS-like tyrosine kinase 3 ligand (Flt3L) and 10 ng/mL thrombopoietin (Tpo) (all from PeproTech, Inc.). p18SMI compounds were added where indicated. Bone marrow cells were harvested from C57BL/6 mice and made into a single-cell suspension. After immunomagnetic c-Kit enrichment (cKit-conjugated microbeads [MiltenyiBiotec, Bergisch-Gladbach]), cells were washed and resuspended in HSCs expansion medium. After culture, total nucleated cell counts were obtained, and a fraction of mononuclear cells (MNCs) or whole bone marrow cells were stained for flow cytometry analysis. Frequency of each cell population was determined by independently analyzing more than 5 × 10^5 cells per sample in triplicate.
For stem-cell quantitation, the cultured bone marrow nucleated cells were co-stained with a combination of PE-Cy7 labeled antibodies against mouse CD3, CD4, CD8, B220, Gr-1, Mac-1 and TER-119, anti-Sca-1-PercpCy5.5, anti-CD48-PE and anti-CD150-APC (all from Biolegend). DAPI was used for dead-cell discrimination. Due to the presence of cytokine stem cell factor (SCF), we could not detect the c-Kit marker of those cultured cells. […] Flow cytometry and flow sorting were conducted with a CyAn (DakoCytomation) or a FACSCalibur system (BD Biosciences). FlowJo software Version 7.6.2 (TreeStar) was used for data analysis.

The test system of another series is 32D cells. The series can be described thus: MTT cell proliferation assay, general cytotoxicity. It is filed as cell-based. The protocol:
(§1) First, a cell-proliferation assay was performed on the immortalized myeloblast-like cell line 32D cells to evaluate general cytotoxicity. […] We also evaluated cytotoxicity using primary hematopoietic cells.
To evaluate the toxicity of our top compounds, we performed a cell proliferation assay using 32D cells as well as leukemia cell lines and myeloma cell lines. Weihi-3 cells were cultured at 37 °C under 5% CO2 in RPMI 1640 medium supplemented with 10%FBS. After 48 h, the supernatant was collected and filtered. 32D cells were cultured in RPMI 1640 with 10% FBS and 10% supernatant collected from Weihi-3 cells. 8,000 32D cells or leukemia cell line (KG-1 or KG-1a) or myeloma cell line (MM.1S or RPMI 8226) were plated in a 96-well plate in 198 μL culture media per well, and then cultured (37 °C, 5% CO2) overnight. 2 μL of serially diluted compounds dissolved in saline or DMSO were added to each well and incubated (37 °C, 5% CO2) for 72 h. The concentration of DMSO was equal to the one in corresponding compound group. 20 μL of MTT solution was added to each well and then incubated (37 °C, 5% CO2) for 4 h. The percentage of cell survival was determined using the MTT assay, as previously described. The data was analyzed using GraphPad Prism v6.0.
(In general: Formazan colour is commonly taken as a measure of viable cells.)

Series [2] concerns c-Kit enriched BM cells (primary hematopoietic cells). Kind of series: apoptosis analysis by Annexin V staining. It is filed as cell-based. As to conditions: effective concentration (20 μM), 5 days, compared with negative control group. The protocol: as §1
Figure 6 Cytotoxicity assessment of top p18SMI compounds. (A) Cell proliferation assay was performed on 32D cells to evaluate general cytotoxicity. The cell survival was determined by the MTT assay. (B) Apoptosis statistics analysis of cultured c-Kit enriched BM cells which were cultured with cytokine plus 20 μM compound 40 or DMSO. Uncultured bone marrow cells were irradiated by UV to serve as positive control. Apoptosis was checked by Annexin V staining on hematopoietic cells. (C,D) Proliferation effect of compound 40 on leukemia cell lines KG-1 and KG-1a. The cell survival was determined with the MTT assay. Data is mean ± SEM for all experiments of two or more and were performed in duplicate or triplicate.
c-Kit enriched BM cells were cultured for 5 days with cytokine combination plus compound 40 or DMSO. […] Apoptosis and cell death were measured by AnnexinV and DAPI staining according to the manufacturer’s instructions in the Annexin V-FITC Apoptosis Detection Kit (BD Biosciences). Apoptosis was measured on an FACS analyzer (LSR Fortessa, BD Biosciences). The data was analyzed using FlowJo software (Treestar, Inc.).

`O=C([O-])c1ccc(S(=O)(=O)NC2CCCCC2)cc1.[Na+]` [Compound 40, sodium 4-(N-cyclohexylsulfamoyl)benzoate]: in the series on HSCs (bone marrow MNCs), the “HSC frequency (1 in x of the original plated cells)” value is on record as 37,524 and the “frequency of HSC, fold higher than control group” value is 3.0 fold. In series [1], the “increase of absolute number of Lin-Sca-1+ hematopoietic stem/progenitor cells (HSPC)” value came out at 2.29 fold, the “increase of number of LT-HSCs (CD150+CD48− SLAM+)” value was 2.61 fold and the “total cellularity (total cell)” value is given as “slight increase”. In addition, the “cytotoxicity toward 32D cells” value with 32D cells was “did not show significant cytotoxicity; also recorded: not cytotoxic”. Also, the “cytotoxic effects (cell viability, MTT)” value in the series with 32D cells (25 μM) was “did not show any cytotoxic effects”. The “cell viability (MTT)” value in the series on 32D cells (50 μM, thought to be due to cytotoxicity of the solvent DMSO) is on record as “only slight decreases in cell viability”. Also, in series [2], the “cytotoxicity / apoptotic cell death in primary hematopoietic cells (HSCs)” value is given as “did not show significant cytotoxicity; also recorded: did not increase apoptotic cell death; also recorded: not cytotoxic”.
